This passage reports T/C results from PubChem BioAssay AID256 (DTP/NCI, 2004).

The test has as its system CD2F1 mice, L1210 leukemia ip, survival T/C. Description: NCI In Vivo Anticancer Drug Screen. Data for tumor model L1210 Leukemia (intraperitoneal) in CD2F1 (CDF1) mice. Conditions: higher = longer survival. The procedure, abridged:
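Ratio T/C, where T is the treated-group value and C the vehicle-dosed control value, from mice implanted with a transplantable tumor.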

Setting [1] is: endpoint: mean survival time, dose: 100.0 mg/kg/injection, schedule: Q01DX009 (ip), vehicle: saline with Tween-80.
The mark [2] stands for this setting: endpoint: mean survival time, dose: 200.0 mg/kg/injection, schedule: Q01DX009 (ip), vehicle: saline with Tween-80.
The mark [3] stands for this setting: endpoint: mean survival time, dose: 400.0 mg/kg/injection, schedule: Q01DX009 (ip), vehicle: saline with Tween-80.
Setting [4] is: endpoint: mean survival time, dose: 100.0 mg/kg/injection, schedule: Q04DX003 (ip), vehicle: saline with Tween-80.
[5] abbreviates: endpoint: mean survival time, dose: 200.0 mg/kg/injection, schedule: Q04DX003 (ip), vehicle: saline with Tween-80.
The mark [6] stands for this setting: endpoint: mean survival time, dose: 100.0 mg/kg/injection, schedule: Q01DX001 (ip), vehicle: saline.
Setting [7] is: endpoint: mean survival time, dose: 200.0 mg/kg/injection, schedule: Q01DX001 (ip), vehicle: saline.
Where [8] appears, read: endpoint: mean survival time, dose: 400.0 mg/kg/injection, schedule: Q01DX001 (ip), vehicle: saline.
Setting [9] is: endpoint: mean survival time, dose: 400.0 mg/kg/injection, schedule: Q04DX003 (ip), vehicle: saline with Tween-80.
The mark [10] stands for this setting: endpoint: mean survival time, dose: 25.0 mg/kg/injection, schedule: Q01DX009 (ip), vehicle: saline with Tween-80.
Where [11] appears, read: endpoint: mean survival time, dose: 50.0 mg/kg/injection, schedule: Q01DX009 (ip), vehicle: saline with Tween-80.
The mark [12] stands for this setting: endpoint: mean survival time, dose: 100.0 mg/kg/injection, schedule: Q01DX009 (ip), vehicle: Klucel (hydroxypropylcellulose) (HPC).
[13] abbreviates: endpoint: mean survival time, dose: 200.0 mg/kg/injection, schedule: Q01DX009 (ip), vehicle: Klucel (hydroxypropylcellulose) (HPC).

Where “and” joins values, the source holds several entries; their conditions need not be identical. Identical values can stand only once. Inconclusive results and toxic doses are left out.

Consider `COC(=O)c1cc(NS(=O)(=O)c2ccc(N)c([N+](=O)[O-])c2)cc(C(=O)OC)c1`, for which the T/C under setting [1] is 98 % of control, the T/C under setting [2] is 95 % of control and the T/C under setting [3] is 96 % of control.

With `CCc1ccc(O[Si](C)(C)C)cc1`, the T/C was 97 % of control under setting [4] and 99 % of control under setting [5].

With `C=CCc1ccc(OC(=O)Nc2ccc(S(=O)(=O)N(CCC)CCC)cc2)c(OC)c1`, the T/C was 94 % of control under setting [6], 94 % of control under setting [7] and 94 % of control under setting [8].

`CCCCCCCCCCCCOc1c(Cl)cc(Cl)cc1Cl`: the T/C (endpoint: mean survival time, dose: 100.0 mg/kg/injection, schedule: Q04DX002 (ip), vehicle: saline with Tween-80) is 101 % of control; the T/C (endpoint: mean survival time, dose: 200.0 mg/kg/injection, schedule: Q04DX002 (ip), vehicle: saline with Tween-80) is 101 % of control; the T/C (endpoint: mean survival time, dose: 400.0 mg/kg/injection, schedule: Q04DX002 (ip), vehicle: saline with Tween-80) is 104 % of control.

`O=C(CCN1CC1)NCCCCCCCCNC(=O)CCN1CC1`: the T/C (endpoint: mean survival time, dose: 22.0 mg/kg/injection, schedule: Q01DX001 (ip), vehicle: carboxymethylcellulose (CMC)) was 101 % of control; the T/C (endpoint: mean survival time, dose: 33.0 mg/kg/injection, schedule: Q01DX001 (ip), vehicle: carboxymethylcellulose (CMC)) is 112 % of control; the T/C (endpoint: mean survival time, dose: 50.0 mg/kg/injection, schedule: Q01DX001 (ip), vehicle: carboxymethylcellulose (CMC)) was 113 % of control.

Regarding `c1ccc([Si]2(c3ccccc3)c3ccccc3-c3ccccc32)cc1`, the T/C runs as follows: under setting [1], 94 % of control; under setting [2], 99 % of control.

Regarding `CC(C)=NO`, the T/C was 109 % of control under setting [4] and 90 % of control under setting [5].

As to `O=C(O)/C=C/C(=O)c1ccccc1`, the T/C is, setting by setting: (endpoint: mean survival time, dose: 12.5 mg/kg/injection, schedule: Q04DX003 (ip), vehicle: saline with Tween-80) 104 % of control; (endpoint: mean survival time, dose: 25.0 mg/kg/injection, schedule: Q04DX003 (ip), vehicle: saline with Tween-80) 98 % of control.

On to `COc1cnnc2ccccc12`, for which the T/C under setting [4] is 104 % of control, the T/C under setting [5] was 103 % of control and the T/C under setting [9] was 92 % of control.

For `CCCSCC`, the T/C by setting is: under setting [10], 98 % of control; under setting [11], 106 % of control; under setting [1], 95 % of control and 96 % of control.

As for `CN(C)CCCNC(=O)c1ccc(N)cc1`, the T/C was 102 % of control (endpoint: mean survival time, dose: 100.0 mg/kg/injection, schedule: Q04DX002 (ip), vehicle: saline); 105 % of control (endpoint: mean survival time, dose: 200.0 mg/kg/injection, schedule: Q04DX002 (ip), vehicle: saline); 97 % of control (endpoint: mean survival time, dose: 400.0 mg/kg/injection, schedule: Q04DX002 (ip), vehicle: saline).

`O=C1OC(c2ccccc2)=N/C1=C\c1cccc(O)c1`: the T/C is, setting by setting: under setting [1], 104 % of control; under setting [2], 109 % of control; under setting [3], 98 % of control.

With `CN(C)c1ccc(Cc2ccc(N(C)C)nc2)cn1`, the T/C reads like this: under setting [12], 104 % of control; under setting [13], 98 % of control; (endpoint: mean survival time, dose: 400.0 mg/kg/injection, schedule: Q01DX009 (ip), vehicle: Klucel (hydroxypropylcellulose) (HPC)) 92 % of control.

Consider `O=C1C=C/C(=N\N=C2/C=CC(=O)O2)O1`, for which the T/C is 100 % of control (endpoint: mean survival time, dose: 25.0 mg/kg/injection, schedule: Q04DX002 (ip), vehicle: saline with Tween-80) and 91 % of control (endpoint: mean survival time, dose: 50.0 mg/kg/injection, schedule: Q04DX002 (ip), vehicle: saline with Tween-80).

Consider `CN(C)[C@@H]1C(=O)C(C(=O)NCNc2nc3n[nH]nc3c(=O)[nH]2)=C(O)[C@@]2(O)C(=O)C3=C(O)c4c(O)cccc4[C@@](C)(O)[C@H]3C[C@@H]12`, for which the T/C by setting is: under setting [11], 117 % of control; under setting [1], 123 % of control; under setting [3], 94 % of control.

As to `COc1ccc(OC)c(C=NCCN=Cc2cc(OC)ccc2OC)c1`, the T/C under setting [1] is 87 % of control; the T/C under setting [4] was 90 % of control; the T/C under setting [2] was 95 % of control; the T/C under setting [5] is 88 % of control; the T/C under setting [3] is 87 % of control; the T/C under setting [9] is 87 % of control.

In the case of `O=C(O)C(O)C(O)C(O)C(O)C(=O)O.[NH-]C1CCCCC1[NH-].[Pt+2]` (stereo not drawn), the T/C by setting is: (endpoint: median survival time, dose: 6.25 mg/kg/injection, schedule: Q04DX003 (ip), vehicle: saline) 116 % of control and 112 % of control; (endpoint: median survival time, dose: 12.5 mg/kg/injection, schedule: Q04DX003 (ip), vehicle: saline) 121 % of control and 123 % of control; (endpoint: median survival time, dose: 25.0 mg/kg/injection, schedule: Q04DX003 (ip), vehicle: saline) 123 % of control; (endpoint: median survival time, dose: 50.0 mg/kg/injection, schedule: Q04DX003 (ip), vehicle: saline) 151 % of control and 152 % of control; (endpoint: median survival time, dose: 100.0 mg/kg/injection, schedule: Q04DX003 (ip), vehicle: saline) 167 % of control and 187 % of control.

For the compound `CC(=O)Oc1cccc2c1C(=O)c1c(OC(C)=O)cc(C)cc1C2=O`, the T/C under setting [6] was 101 % of control, the T/C under setting [7] was 101 % of control and the T/C under setting [8] is 98 % of control.

On to `CCCCOC(=O)C(C)(C)O`, for which the T/C was 96 % of control under setting [4], 102 % of control under setting [5] and 98 % of control under setting [9].

Consider `O=S(=O)(Nc1cc(N2CCCCC2)c(NS(=O)(=O)c2ccccc2)cc1N1CCCCC1)c1ccccc1`, for which the T/C runs as follows: (endpoint: mean survival time, dose: 100.0 mg/kg/injection, schedule: Q01DX001 (ip), vehicle: Klucel (hydroxypropylcellulose) (HPC)) 88 % of control; (endpoint: mean survival time, dose: 200.0 mg/kg/injection, schedule: Q01DX001 (ip), vehicle: Klucel (hydroxypropylcellulose) (HPC)) 98 % of control; (endpoint: mean survival time, dose: 400.0 mg/kg/injection, schedule: Q01DX001 (ip), vehicle: Klucel (hydroxypropylcellulose) (HPC)) 90 % of control.

`NC(=O)n1ccnc1`: the T/C was 96 % of control (endpoint: mean survival time, dose: 50.0 mg/kg/injection, schedule: Q01DX001 (ip), vehicle: saline); 98 % of control under setting [6]; 108 % of control under setting [7].

`S=C(S)Nc1ccc(Cc2ccc(NC(=S)S)cc2)cc1`: the T/C was 98 % of control under setting [1], 96 % of control under setting [2] and 93 % of control under setting [3].

On to `CC(=O)Nc1ccccc1OC(=O)OCC(Cl)(Cl)Cl`, for which the T/C under setting [1] is 96 % of control, the T/C under setting [2] is 96 % of control and the T/C under setting [3] is 101 % of control.

Take `CN(C)CC1CCCCC(CN(C)C)C1=O` (stereo not drawn): the T/C is, setting by setting: (endpoint: mean survival time, dose: 75.0 mg/kg/injection, schedule: Q01DX001 (ip), vehicle: saline) 120 % of control; (endpoint: mean survival time, dose: 150.0 mg/kg/injection, schedule: Q01DX001 (ip), vehicle: saline) 104 % of control; (endpoint: mean survival time, dose: 300.0 mg/kg/injection, schedule: Q01DX001 (ip), vehicle: saline) 104 % of control.

On to `CC1=CCCC2(CCC3(C)CC32)C1(C)C` (stereo not drawn), for which the T/C is, setting by setting: (endpoint: mean survival time, dose: 100.0 mg/kg/injection, schedule: Q04DX003 (ip), vehicle: acetone) 98 % of control; (endpoint: mean survival time, dose: 200.0 mg/kg/injection, schedule: Q04DX003 (ip), vehicle: acetone) 102 % of control; (endpoint: mean survival time, dose: 400.0 mg/kg/injection, schedule: Q04DX003 (ip), vehicle: acetone) 110 % of control.

For the compound `C#CC(C)(C)OCC(CCl)OC(N)=O` (stereo not drawn), the T/C under setting [10] is 97 % of control, the T/C under setting [11] is 97 % of control, the T/C under setting [1] was 100 % of control and the T/C under setting [2] was 102 % of control.

Take `O=P(Oc1ccccc1)(Oc1ccccc1)C(Nc1ccccc1)c1cccnc1` (stereo not drawn): the T/C is 102 % of control under setting [11], 97 % of control under setting [1] and 94 % of control under setting [2].

`S=C(NCNC(=S)c1ccncc1)c1ccncc1`: the T/C was 102 % of control (endpoint: median survival time, dose: 25.0 mg/kg/injection, schedule: Q01DX009 (ip), vehicle: saline with Tween-80); 103 % of control (endpoint: median survival time, dose: 50.0 mg/kg/injection, schedule: Q01DX009 (ip), vehicle: saline with Tween-80); 106 % of control (endpoint: median survival time, dose: 100.0 mg/kg/injection, schedule: Q01DX009 (ip), vehicle: saline with Tween-80); 104 % of control (endpoint: median survival time, dose: 200.0 mg/kg/injection, schedule: Q01DX009 (ip), vehicle: saline with Tween-80); 104 % of control (endpoint: median survival time, dose: 400.0 mg/kg/injection, schedule: Q01DX009 (ip), vehicle: saline with Tween-80).

On to `Nc1nc(N)c(CCCOc2ccc(C(=O)O)cc2)c(N)n1`, for which the T/C (endpoint: mean survival time, dose: 50.0 mg/kg/injection, schedule: Q01DX009 (ip), vehicle: Klucel (hydroxypropylcellulose) (HPC)) is 94 % of control; the T/C under setting [12] was 101 % of control; the T/C under setting [13] is 94 % of control.

On to `CC1CC1Cc1ccccc1` (stereo not drawn), for which, under “endpoint: mean survival time, dose: 100.0 mg/kg/injection, schedule: Q01DX001 (ip), vehicle: saline with Tween-80”, the T/C was 86 % of control.

`N#CC(CC(=O)OCc1ccccc1)NC(=O)OCc1ccccc1` (stereo not drawn): the T/C runs as follows: under setting [5], 86 % of control; under setting [9], 94 % of control.
